Assay results published in patent US20230212123A1, “Pyridine Inhibitors of Glucosylceramide Synthase and Therapeutic Methods Using the Same” (THE REGENTS OF THE UNIVERSITY OF MICHIGAN, priority 2020, published 2023).

Key:
[1] = biological target: T1, glucosylceramide synthase (GCS) (Canis lupus familiaris, UniProt A0A8I3MXG6); experiment: GCS inhibition in MDCK cell homogenates (Lysate IC50); type: biochemical, canine; conditions: MDCK cell homogenate
T1 construct: endogenous in cells; host or cells: MDCK cell homogenate
T1 sequence (A0A8I3MXG6 1-394): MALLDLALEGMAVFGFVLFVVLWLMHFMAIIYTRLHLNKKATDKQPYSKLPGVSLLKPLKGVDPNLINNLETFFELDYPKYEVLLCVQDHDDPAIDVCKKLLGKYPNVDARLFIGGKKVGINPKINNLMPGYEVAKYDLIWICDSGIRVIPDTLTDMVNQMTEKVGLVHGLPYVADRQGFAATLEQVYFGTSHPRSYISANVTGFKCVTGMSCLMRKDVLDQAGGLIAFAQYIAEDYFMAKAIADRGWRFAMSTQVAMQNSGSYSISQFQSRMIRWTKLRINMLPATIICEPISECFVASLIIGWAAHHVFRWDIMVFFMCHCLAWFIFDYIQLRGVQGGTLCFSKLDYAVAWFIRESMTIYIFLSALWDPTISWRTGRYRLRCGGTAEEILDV
Method: GCS Inhibition in MDCK Cell Homogenates (Lysate IC50, Table 1)
IC50 values for new compounds of the invention were determined as reported in Shayman J. A., Abe A. 2000. Glucosylceramide synthase: assay and properties. Methods Enzymol.311: 42-49.

GCS in MDCKII cells = biological target: T2, GCS in MDCKII cells (Canis lupus familiaris, UniProt A0A8I3MXG6); experiment: GCS inhibition in MDCKII cells (glucosylceramide content after 24 h); type: cell-based, canine
T2 construct: whole cellular lipids of wild type MDCKII cells were extracted; endogenous in cells; host or cells: wild type MDCKII cells
T2 sequence (A0A8I3MXG6 1-394): T1 sequence (A0A8I3MXG6 1-394)
Method: GCS Inhibition in MDCKII Cells (MDCKII IC50, Table 1)
MDCKII cells were routinely maintained in medium consisting of Opti-MEM/F12 (1:1), 5% FBS, 100 U/mL of penicillin, 100 µg/mL streptomycin and 200 mM L-glutamine. MDCKII cells were newly thawed from frozen ampules every two months.
Stock solutions of water-insoluble glycosphingolipid inhibitors (100 mM) were prepared by dissolving each inhibitor into 100% ethanol as previously described (3). The inhibitor-ethanol solutions then were diluted 50X into 2 mM delipidated bovine serum albumin-phosphate buffered saline solution to make water-soluble glycosphingolipid inhibitor-bovine serum albumin complexes. The inhibitor-bovine serum album complexes were sterile-filtered and stored at -20° C. Prior to use, portions of the inhibitor-bovine serum albumin complexes were further diluted with Opti-F12 to make treatment solutions. Equal amounts of bovine serum albumin and ethanol were added into the control cultures. Cells (5 x 10^5) were seeded into 10-cm culture dishes containing 10 ml of Opti-F12 with 5% FBS. After 24 hours, the medium was replaced with fresh serum-free Opti-F12 medium, and cells were exposed to candidate GCS inhibitors at concentrations of 0, 1, 3, 10, 30, 100 and 300 nM for 24 hours.
Following inhibitor treatment, whole cellular lipids of wild type MDCKII cells were extracted as previously described in detail (10). Briefly, cells were washed with ice-cold phosphate buffered saline, fixed by methanol, and collected with rubber scraper. Chloroform was then added to yield a theoretical ratio of chloroform:methanol:water at 1:2:0.8 (v/v/v) to form a mono-phase. Cell debris and proteins were removed by centrifugation at 2200 x g for 30 min. The supernatants were portioned by adding chloroform and 0.9% NaCl. The lower organic phases containing neutral glycosphingolipids lipids were washed with methanol and 0.9% NaCl, and subjected to base- and acid-hydrolysis (10). A portion of purified glycosphingolipids normalized to 100 nmol of total phospholipids was analyzed by high performance thin layer chromatography. The thin layer chromatography separations were processed twice. The plate pretreated with 1% sodium borate was first developed in a solvent system consisting of chloroform/methanol (98/2, v/v). After air drying, the plate was then developed in a solvent system containing chloroform/methanol/water (70/30/4, v/v/v). The levels of glucosylceramide were detected by charring with 8% cupric sulfate in 8% phosphoric acid, and quantified by densitometric scanning using ImageJ, NIH Image. Image data was analyzed, and the IC50 of each inhibitor was calculated using GraphPad Prism (version 5.03).

[2] = test system: glucosylceramide (GlcCer) in brain and liver; experiment: Reduction of brain and liver glucosylceramide in CBE mice; type: in vivo; conditions: 14 days, D409V/null mice with CBE 25 mg/kg/day ip
Method: The in vivo assay measured the reduction in brain and liver glucosylceramide and glucosylsphingosine levels in mice on a D409V background concurrently treated with conduritol B epoxide (CBE), an irreversible inhibitor of GBA (beta-glucocerebrosidase).
Reduction of Brain and Liver Glucosylceramide and Glucosylsphingosine in CBE Mice
The reduction by inhibitors of GCS in brain glucosylceramide and glucosylsphingosine content was determined by the use of mice with Gba 1 mutant alleles, termed D409V/null. These are knock-in mice with a Gba 1 point mutation encoding Valine (V) 409 for the wild type (WT) Aspartate (D) on one missense allele and a null heteroallele [D409V/null (9V/null)]. The D409V/null and WT littermates were of mixed gender and mixed, but matched, genetic backgrounds of C57BL/129Sv/FVB. […] Mice were concurrently treated with GCS inhibitor or vehicle control for 14 days. The mice were sacrificed 2 hours following the last injection and tissues including brain, liver, spleen, kidney and lung were analyzed for glucosylceramide and glucosylsphingosine by mass spectrometry.
Mouse Tissue Lipid Analysis
Lipid extractions of liver, kidney, and brain were performed as previously described (7). Briefly, frozen liver (about 0.5 g), two kidneys (about 0.3 g) and whole brain (about 0.4 g) were individually homogenized in sucrose buffer (250 mM sucrose, pH 7.4, 10 mM HEPES and 1 mM EDTA), at 0.2 g tissue/1 mL of sucrose buffer, with a Tri-R homogenizer. Each 0.8 mL of homogenate was mixed with 2 mL of methanol and 1 mL of chloroform, bath sonicated for 1 min and incubated at room temperature for 1 h. Tissue debris were removed by centrifugation at 2.400 x gravity for 30 min. The pellets were reextracted by mixing with 1 mL of methanol, 0.5 mL of chloroform and 0.4 mL of 0.9% NaCl (chloroform/methanol/0.9% NaCl, 1:2:0.8), incubated at room temperature for 1 h and centrifuged at 2.400 x gravity for another 30 min. Two extracts were combined and mixed with 4.5 mL of chloroform and 1.2 mL of 0.9% NaCl (chloroform/methanol/0.9% NaCl, 2:1:0.8). After centrifugation at 800 x gravity for 5 min, lower layer was washed with 3 mL of methanol and 2.4 mL of 0.9% NaCl. Second washing was carried with 3 mL of methanol, 2 mL of water and 0.4 mL of 0.9% NaCl followed by a 5 min centrifugation at 800 x gravity. The resultant lower phase was collected and dried under a stream of N2 gas.
The analysis of neutral glycosphingolipids from mouse liver, kidney, and brain was processed after alkaline methanolysis. Kidney lipids were incubated with 2 mL of chloroform and 1 ml of 0.21 N NaOH in methanol for 2 h (kidney) or 7.5 h (liver and brain) at RT. […] GlcCer levels were quantified by comparison to known standards.

[3] = Pharmacokinetics in mice: plasma and brain drug AUC; type: in vivo; conditions: over 7 hrs following single IP injection at 10 mg/kg; for Kp / AUC: mouse; for Kp: brain/plasma; for AUC: plasma
[4] = 24 hours exposure, glucosylceramide level

SMILES | IC50 [1] [nM] | IC50 (GCS in MDCKII cells; [4]) [nM] | Kp [3] | Brain drug AUC [3] [ng·h/g] | further results
COc1cc([C@@H](O)[C@@H](CN2CCCC2)NC(=O)CC2Cc3ccccc3C2)ccn1 [Example 8, 2-(2,3-dihydro-1H-inden-2-yl)-N-((1R,2R)-1-hydroxy-1-(2-methoxypyridin-4-yl)-3-(pyrrolidin-1-yl)propan-2-yl)acetamide] | 56 | 94.6 |  |  | 
COc1ccc([C@@H](O)[C@@H](CN2CCC(C)(C)C2)NC(=O)CC2Cc3ccccc3C2)nc1 [Example 16, 2-(2,3-dihydro-1H-inden-2-yl)-N-((1S,2R)-3-(3,3-dimethylpyrrolidin-1-yl)-1-hydroxy-1-(5-methoxypyridin-2-yl)propan-2-yl)acetamide] | > 2000 | > 1000 |  |  | 
CC(C)(C)Oc1ccc([C@@H](O)[C@@H](CN2CCCC2)NC(=O)CC2Cc3ccccc3C2)nc1 [Example 17, N-((1S,2R)-1-(5-(tert-butoxy)pyridin-2-yl)-1-hydroxy-3-(pyrrolidin-1-yl)propan-2-yl)-2-(2,3-dihydro-1H-inden-2-yl)acetamide] | 11.3 | 4.6 | 0.34 | 308 | CBE mouse GlcCer reduction in brain ([2]; dose 100 µmol/kg): 23%; CBE mouse GlcCer reduction in liver ([2]; dose 100 µmol/kg): 34%; AUC [3]: 902 ng·h/mL
O=C(CC1Cc2ccccc2C1)N[C@H](CN1CCCC1)[C@H](O)c1cccc(Cl)n1 [Example 20, N-((1S,2R)-1-(6-chloropyridin-2-yl)-1-hydroxy-3-(pyrrolidin-1-yl)propan-2-yl)-2-(2,3-dihydro-1H-inden-2-yl)acetamide] | 131 | 61 |  |  | 
O=C(CC1Cc2ccccc2C1)N[C@H](CN1CCCC1)[C@H](O)c1ccc(OC(F)(F)F)cn1 [Example 21, 2-(2,3-dihydro-1H-inden-2-yl)-N-((1S,2R)-1-hydroxy-3-(pyrrolidin-1-yl)-1-(5-(trifluoromethoxy)pyridin-2-yl)propan-2-yl)acetamide] | 77 |  | 0.35 | 398 | IC50 (GCS in MDCKII cells; cell marked 'rac': value of the racemate, 24 hours): 6.5 nM; AUC [3]: 1120 ng·h/mL
CC(C)(C)Oc1ccc([C@@H](O)[C@@H](CN2CCCC2)NC(=O)CC2Cc3ccc(F)cc3C2)nc1 (stereo partly drawn) [Example 24, N-((1S,2R)-1-(5-(tert-butoxy)pyridin-2-yl)-1-hydroxy-3-(pyrrolidin-1-yl)propan-2-yl)-2-(5-fluoro-2,3-dihydro-1H-inden-2-yl)acetamide] | 568 | 23.8 |  |  | 
O=C(CC1Cc2ccccc2C1)N[C@H](CN1CCCC1)[C@H](O)c1cc(Cl)ccn1 [Example 25, N-((1S,2R)-1-(4-chloropyridin-2-yl)-1-hydroxy-3-(pyrrolidin-1-yl)propan-2-yl)-2-(2,3-dihydro-1H-inden-2-yl)acetamide] | 36.4 |  | 0.17 | 173 | CBE mouse GlcCer reduction in brain ([2]; dose 72 µmol/kg): 30%; CBE mouse GlcCer reduction in liver ([2]; dose 72 µmol/kg): 36%; AUC [3]: 1040 ng·h/mL
CC(C)(C)Oc1ccc([C@@H](O)[C@@H](CN2CCCC2)NC(=O)CC2Cc3ccccc3C2)cc1 [reference compound] |  |  | 0.58 | 619 | AUC [3]: 1070 ng·h/mL
O=C(CC1Cc2ccccc2C1)N[C@H](CN1CCCC1)[C@H](O)c1ccc(OC(F)(F)F)cc1 [reference compound] |  |  | 0.8 | 1046 | Plasma drug AUC [3]: 1308 ng·h/mL

Now from value to molecule, other results behind:

IC50 [1] [nM] | IC50 (GCS in MDCKII cells; [4]) [nM] | Kp [3] | Brain drug AUC [3] [ng·h/g] | SMILES | further results
> 5000 | > 1000 |  |  | COc1cncc([C@@H](O)[C@@H](CN2CCCC2)NC(=O)CC2Cc3ccccc3C2)c1 [Example 9, 2-(2,3-dihydro-1H-inden-2-yl)-N-((1R,2R)-1-hydroxy-1-(5-methoxypyridin-3-yl)-3-(pyrrolidin-1-yl)propan-2-yl)acetamide] | 
37.4 | 15.8 |  |  | COc1ccc([C@@H](O)[C@@H](CN2CCCC2)N(C)C(=O)CC2Cc3ccccc3C2)nc1 [Example 10] | 
24900 | 79.5 |  |  | COc1ccnc([C@@H](O)[C@@H](CN2CCCC2)NC(=O)CC2Cc3ccccc3C2)c1 [Example 12, 2-(2,3-dihydro-1H-inden-2-yl)-N-((1S,2R)-1-hydroxy-1-(4-methoxypyridin-2-yl)-3-(pyrrolidin-1-yl)propan-2-yl)acetamide] | 
182 | 594 |  |  | O=C(CC1Cc2ccccc2C1)N[C@H](CN1CCCC1)[C@H](O)c1cccnc1 [Example 13, 2-(2,3-dihydro-1H-inden-2-yl)-N-((1R,2R)-1-hydroxy-1-(pyridin-3-yl)-3-(pyrrolidin-1-yl)propan-2-yl)acetamide] | 
> 2000 | 444 |  |  | COc1cccnc1[C@@H](O)[C@@H](CN1CCCC1)NC(=O)CC1Cc2ccccc2C1 [Example 14, 2-(2,3-dihydro-1H-inden-2-yl)-N-((1S,2R)-1-hydroxy-1-(3-methoxypyridin-2-yl)-3-(pyrrolidin-1-yl)propan-2-yl)acetamide] | 
21.3 | 9.3 |  |  | COc1ccc([C@@H](O)[C@@H](CN2CC3CC3C2)NC(=O)CC2Cc3ccccc3C2)nc1 (stereo partly drawn) [Example 15, N-((1S,2R)-3-(3-azabicyclo[3.1.0]hexan-3-yl)-1-hydroxy-1-(5-methoxypyridin-2-yl)propan-2-yl)-2-(2,3-dihydro-1H-inden-2-yl)acetamide] | 
82 | 13.9 |  |  | COc1ccc([C@@H](O)[C@@H](CN2CC[C@@H](F)C2)NC(=O)CC2Cc3ccccc3C2)nc1 [Example 19, 2-(2,3-dihydro-1H-inden-2-yl)-N-((1S,2R)-3-((R)-3-fluoropyrrolidin-1-yl)-1-hydroxy-1-(5-methoxypyridin-2-yl)propan-2-yl)acetamide] | 
 |  | 0.72 | 1109 | O=C(CC1Cc2ccccc2C1)N[C@H](CN1CCCC1)[C@H](O)c1cccc(Cl)c1 [reference compound] | 
